ChEMBL document CHEMBL1126927

Target: Estrogen receptor (Ovis aries) (UniProt P49885+Q9TU15)
Description: Association constant for estrogen receptor

Row | K ass | Structure (SMILES)
1 | 1.7e+08 | [N-]=[N+]=Nc1c(F)c(F)c(C(=O)c2c(-c3ccc(O)cc3)sc3cc(O)ccc23)c(F)c1F
2 | 1.3e+09 | O=C(c1ccc(OCCN2CCCC2)cc1)c1c(-c2ccc(O)cc2)sc2cc(O)ccc12
3 | 1e+09 | [N-]=[N+]=Nc1ccc(C(=O)c2c(-c3ccc(O)cc3)sc3cc(O)ccc23)cc1
